The results in this text go back to patent US9389237B2, “Methods for inhibiting the development of Huntington's disease” (priority 2003, dated 2016).

Data set [1] relates to mutant form of huntingtin. As to the kind of experiment: In vitro estradiol binding study, overall conclusion. The note with it: conclusion from Table 2. The procedure: These pure proteins were then used in the following binding protocol. Oestradiol-6-(0-carboxymethyl)oximino-(2-[125I] iodohistamine was used as the estradiol source. Buffer B preferably comprises: 250 mM tris, 150 mM NaCl, and a Dextran Charcoal solution comprising 0.05% Dextran coated charcoal in buffer B (sigma Cat#6197). About 0.5 ml of buffer B was preferably used per reaction. A total of 5 ml of Buffer B was aliquoted into a glass borosilicate tube (Fisher Cat#14-961-26) and 10 μL of Oestradiol (1125) was added containing approximately 2,000,000 cpm. About 0.5 ml of this solution was then distributed into eight labeled glass tubes (cat #14-961-260). The entire tube #1's 500 μL was counted. Tube #2 through #8 were treated in the following manner:
Tubes #2-#8 were incubated for 1 hour at room temperature, placed on ice for ten minutes, and 200 μL of the Dextran charcoal solution in buffer B was added. These tubes were then placed on ice ten minutes and then centrifuged 15 minutes at 2200 rpm in a Sorvall RC-3 refrigerated centrifuge with swinging bucket rotor (Sorvall HL-8) at 4 degrees. The entire 700 μL supernatant was removed and counted using Genesys multi-well gamma counter (Laboratories Technology, Inc.). The results are summarized below: […]

Data set [2] deals with HD transgenic mice (HDexon 1 + 159-161 CAG repeat units). Description: Body weight of hormone treated HD transgenic mice. The note with it: for Last wt Week 12 / Peak wt Weeks 8/9 / % change in weight / Change in Grams / % change: single animals; for Average % change: group average weight loss; for % change in weight / Change in Grams / % change: peak to week 12. The format is in vivo. The text has this:
30 HD mice were obtained from the Jackson Laboratory, Bar Harbor, Me. The group consists of a 15 hemizygous female strain #2810 and 15 hemizygous males strain #2810 (containing the transgene HDexon 1+159-161 CAG repeat units). These mice were grouped as follows: • All mice received ear clips as identification, noting hair color. • 1-15 were males and 16-29 were females mouse #30 arrived dead. • Male mice: 1-4 were control animals receiving no treatment, 5,6,7,11 were grouped as E1 8, 9, 10 and 12 were grouped as E2. […] 28 and 29 were grouped as T2, receiving 100 ug/ml testosterone.
Body Weight: All animals were weighed on a scale weekly throughout the study. All weights were recorded.

The test system is the same in data set [3]. As to the kind of experiment: Brain weight at week 12 of treated HD transgenic mice. The format is in vivo. The note with it: for Brain weight at week 12: single animals. The source says:
30 HD mice were obtained from the Jackson Laboratory, Bar Harbor, Me. The group consists of a 15 hemizygous female strain #2810 and 15 hemizygous males strain #2810 (containing the transgene HDexon 1+159-161 CAG repeat units). These mice were grouped as follows: • All mice received ear clips as identification, noting hair color. • 1-15 […] receiving no treatment, […], 9, 10 and 12 were grouped as E2. […] 20, 21, 22, 26 were grouped as E3, 23, 24, 25, 27 were grouped as E4. 28 and 29 were grouped as T2, receiving 100 ug/ml testosterone.
After euthanized, all brains of all mice were surgically removed and placed in a solution of formaldehyde and weighed on a scale. The weights were recorded.

The test system is the same in data set [4]. Description: Beam walking (raised beam) of treated HD transgenic mice. The note with it: for ability to transverse the ½ in beam in the allotted time / improvement over the course of the study (continued ability to cross the ½ in^2 beam after controls were unable): HD mice, 150 seconds allotted; for ability to transverse the ½ in beam in the allotted time: versus untreated control liter mates; for improvement over the course of the study (continued ability to cross the ½ in^2 beam after controls were unable): two weeks after control animals failed; for time after untreated liter mates were unable to perform the trained task, with retained cognitive decision making and motor function: HD transgenic mice, beam task. The format is in vivo. The text has this: 30 HD mice were obtained from the Jackson Laboratory, Bar Harbor, Me. The group consists of a 15 hemizygous female strain #2810 and 15 hemizygous males strain #2810 (containing the transgene HDexon 1+159-161 CAG repeat units). These mice were grouped as follows: • All mice received ear clips as identification, noting hair color. • 1-15 were males and 16-29 were females mouse #30 arrived dead. • Male mice: 1-4 were control animals receiving no treatment, 5,6,7,11 were grouped as E1 8, 9, 10 and 12 were grouped as E2. 13, 14 and 15 were grouped as T1, receiving 100 ug/ml testosterone weekly. • Female mice: 16-19 were control animals receiving no treatment. 20, 21, 22, 26 were grouped as E3, 23, 24, 25, 27 were grouped as E4. 28 and 29 were grouped as T2, receiving 100 ug/ml testosterone.
Utilizing the raised beam, mice were assessed for their ability to transverse a graded series of narrow beams to reach a safety platform. The beams consisted of long strips of wood with a 12 mm or 5 mm square cross section. The beams were placed horizontally, 50 cm above each bench surface, with one end mounted on a narrow support and the other end attached to an enclosed box to which the animal could escape. Two inches of dense foam was placed under the test area to protect the animals from fall injury. Training took place in a 3 or 4 day period, where the mice were trained two to four times in a four day period using the 12 mm square beam. Once they were trained to walk the beam (i.e., traversing the 12 mm square beam in less than 20 seconds), they received two consecutive trails on each of the square beam and each of the round beams, in each case progressing from the widest to the narrowest beam. Mice were afforded 150 seconds to traverse each beam. The number of times the mice slipped off of the beam was recorded for each trial. The mean score was used for each trial.

Data set [5] in a line: Serum hormone level (ES/TT) in treated HD mice. The note with it: subcutaneous injection as emulsion with Freund's incomplete adjuvant.
Procedure: Hormone tests of serum were performed to verify the blood levels of estradiol or testosterone. The mice (controls=no treatment) were tested against liter mates receiving either (E1 and E3 100 ug/ml weekly) or (E2 and E4 200 ug/ml injection weekly).
Blood specimens for estradiol assay using Elisa methodology was obtained during the study.
Stock solution of estradiol and testosterone were diluted with water and mixed with Freund's incomplete adjuvant. This was mixed continuously for 1 minute and either 100 ul (E1 and E3) or 200 ul (E2 and E4) were injected subcutaneously. […] Animals in the E1 and E3 groups were targeted to receive 100-300 pg/ml estrogen and groups E2 and E4 were targeted to receive 400-800 pg/ml of estrogen. Animals in T1 and T2 grouping were targeted to receive 100 pg/ml testosterone.
Where [6] appears, read: female HD mice, group T1, 100 ul T dose weekly, target blood level 50-100 pg/ml.
[7] abbreviates: female HD mice, group T1, 100 ul T dose weekly.
The mark [8] stands for this setting: male HD mice, group T2, 100 ul T dose weekly, target blood level 50-100 pg/ml.
Where [9] appears, read: male HD mice, group T2, 100 ul T dose weekly.
Where [10] appears, read: female HD mice, group E1, 100 ul ES dose weekly, target blood level 100-300 pg/ml.
The mark [11] stands for this setting: female HD mice, group E1, 100 ul ES dose weekly.
Where [12] appears, read: female HD mice, group E2, 200 ul ES dose weekly, target blood level 400-800 pg/ml.
Setting [13] is: female HD mice, group E2, 200 ul ES dose weekly.
[14] abbreviates: male HD mice, group E3, 100 ul ES dose weekly, target blood level 100-300 pg/ml.
The mark [15] stands for this setting: male HD mice, group E3, 100 ul ES dose weekly.
Where [16] appears, read: male HD mice, group E4, 200 ul ES dose weekly, target blood level 400-800 pg/ml.
Where [17] appears, read: male HD mice, group E4, 200 ul ES dose weekly.

“And” between values parts separate entries of the source, which are not always exact repeats. Equal entries are not always repeated. “Also recorded” adds a separate entry of the source.

As to `C[C@]12CC[C@@H]3c4ccc(O)cc4CC[C@H]3[C@@H]1CC[C@@H]2O` [estradiol, 1,3,5(10)-estratriene-3,17beta-diol], the “affinity for mutant huntingtin” value in data set [1] was “an affinity for estradiol has been demonstrated”.

With `CC12CCC(=O)C=C1CCC1[C@@H]2CCC2(C)[C@@H](OC(=O)CCC3CCCC3)CC[C@@H]12` (stereo partly drawn) [testosterone cypionate, androst-4-en-3-one,17-(3-cyclopentyl-1-oxopropoxy)-, (17β)-], in data set [2] (setting [6]), the “Last wt Week 12” value was 17.4 g and 14.5 g; the “Peak wt Weeks 8/9” value was 27.6 g and 21.6 g. Besides, the Average % change in data set [2] (female HD mice, group T1, 100 ul T dose weekly, controls 21.7%) is 34.8%. Besides, in data set [2] (setting [7]), the “% change in weight” value was −36.9% and −32.8%; the “Change in Grams” value was -10.2 g and -7.1 g. Also, in data set [2] (setting [8]), the “Last wt Week 12” value is 17.1 g and 25.1 g and 19.0 g; the “Peak wt Weeks 8/9” value is 23.4 g and 28.0 g and 27.0 g. Further, the “Average % change” value in data set [2] (male HD mice, group T2, 100 ul T dose weekly, controls 27.2%) worked out at 22.2%. Besides, in data set [2] (setting [9]), the “% change” value is −26.9% and −10.3% and −29.6%; the “Change in Grams” value is -6.3 g and -2.9 g and -8.0 g. The “Brain weight at week 12” value in data set [3] (setting [7]) came out at 0.31 g. Also, the “Brain weight at week 12” value in data set [3] (setting [9]) is 0.31 g and 0.37 g and 0.33 g. For the same compound, in data set [4], the “ability to transverse the ½ in beam in the allotted time” value is given as “significant improvement”; the “improvement over the course of the study (continued ability to cross the ½ in^2 beam after controls were unable)” value is 16.6%; the “time after untreated liter mates were unable to perform the trained task, with retained cognitive decision making and motor function” value is listed as 14 days.

Turning to `CC12CCC3c4ccc(O)cc4CCC3C1CC[C@@H]2OC(=O)CCC1CCCC1` (stereo partly drawn) [estradiol cypionate, estradiol 17-cyclopentanepropionate], the “Last wt Week 12” value in data set [2] (setting [10]) was 21.7 g and 16.9 g and 18.9 g and 18.2 g; in data set [2] (setting [12]), 20.5 g and 17.6 g and 13.5 g and 20.7 g; in data set [2] (setting [14]) it was 19.6 g and 22.6 g and 21.7 g and 23.5 g; in data set [2] (setting [16]), 22.9 g and 19.6 g and 20.2 g and 19.4 g. Further, the “Peak wt Weeks 8/9” value in data set [2] (setting [10]) is 24.0 g and 19.9 g and 21.2 g and 25.0 g; in data set [2] (setting [12]), 21.5 g and 21.8 g and 19.8 g and 22.5 g; in data set [2] (setting [14]), 26.2 g and 26.7 g and 24.8 g and 26.4 g; in data set [2] (setting [16]) it was 26.2 g and 24.6 g and 23.7 g and 22.1 g. In addition, the Average % change is on record as 15.5% in data set [2] (female HD mice, group E1, 100 ul ES dose weekly, controls 21.7%); 15.7% in data set [2] (female HD mice, group E2, 200 ul ES dose weekly, controls 21.7%); 15.9% in data set [2] (male HD mice, group E3, 100 ul ES dose weekly, controls 27.2%); 14.9% in data set [2] (male HD mice, group E4, 200 ul ES dose weekly, controls 27.2%). The “% change in weight” value in data set [2] (setting [11]) was −9.0% and −15.0% and −10.8% and −27.2%; in data set [2] (setting [13]), −4.6% and −19.2% and −31.0% and −8.0%. The “Change in Grams” value in data set [2] (setting [11]) was −2.3 g (2×) and −3.0 g and −6.8 g; in data set [2] (setting [13]) it was -1.0 g and -4.2 g and -6.3 g and -1.8 g; in data set [2] (setting [15]) it was -6.6 g and -4.1 g and -3.1 g and -2.9 g; in data set [2] (setting [17]), -3.3 g and -5.0 g and -3.5 g and -2.7 g. Besides, the “% change” value in data set [2] (setting [15]) was −25.0% and −15.3% and −12.5% and −10.9%; in data set [2] (setting [17]) it was −12.5% and −20.3% and −14.7% and −12.2%. Moreover, the “Brain weight at week 12” value in data set [3] (setting [11]) is 0.33 g and 0.36 g and 0.34 g and 0.30 g; in data set [3] (setting [13]) it was 0.33 g and 0.37 g (2×); in data set [3] (setting [15]), 0.37 g (2×) and 0.40 g (2×); in data set [3] (setting [17]) it was 0.39 g and 0.34 g and 0.35 g. Besides, in data set [3] (on average, lower level (100-300 Pg/ml) of estrogen treatment versus untreated), the “increase in brain weight” value was no more than 10%. In addition, in data set [4], the “ability to transverse the ½ in beam in the allotted time” value is on record as “significant improvement; also recorded: able to complete the traversing of the beam in the allotted time; also recorded: significant increase in their ability to cross the beam within the time allotment”. Besides, in data set [4], the “improvement over the course of the study (continued ability to cross the ½ in^2 beam after controls were unable)” value was found to be 16.6%. The “time after untreated liter mates were unable to perform the trained task, with retained cognitive decision making and motor function” value in data set [4] was 14 days. For the same compound, the release after injection result in data set [5] is on record as “continuous over six days”.
